Measurements: patent publication US12263248B2, “Compounds and compositions for intracellular delivery of therapeutic agents” (ModernaTX, Inc., priority 2018, dated 2025)

Experiments:
[1] = Particle size and polydispersity index of nanoparticle compositions (Zetasizer Nano ZS); format: physicochemical
How it was run: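 Measured in 1×PBS by Zetasizer Nano ZS.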

[2] = Encapsulation efficiency of RNA (QUANT-IT RIBOGREEN RNA assay); format: physicochemical
How it was run: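 RiboGreen fluorescence (ex ~480, em ~520 nm) compared between intact samples and Triton X-100-lysed samples after 15 min at 37 °C in TE buffer, pH 7.5. Percent free RNA is the blank-corrected intact/disrupted ratio.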

[3] = Apparent (surface) pKa of the LNP formulation (TNS assay); format: physicochemical; conditions: for pKa: Table 1A
How it was run: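 Fluorescence of TNS probe added to LNP samples (mRNA 0.04 mg/mL) was read across 21 buffers of pH about 3-12, triplicate per pH. The inflection point of the sigmoidal fluorescence-vs-pH curve, […], gives apparent pKa; method validated in 1× PBS and Tris/sucrose buffer.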

luciferase (Luc) mRNA [4] = assay: Luc expression (total flux) after intramuscular administration; format: in vivo, mice; conditions: Table 3B; i.m., 0.01 mpk, 6 h
How it was run: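 Total-flux luciferase signal in mice after one intramuscular injection. Nanoparticle formulations contained modified Luc mRNA, either alone or co-dosed with H10 mRNA (e.g., 0.0005 or 0.005 mpk of each), giving 0.001 or 0.01 mpk.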

hEPO mRNA [5] = assay: hEPO expression after intramuscular administration to mice; format: in vivo; conditions: Table 3I, hEPO
Procedure: The expression of hEPO and cytokine induction in mice intravenously administered a nanoparticle composition at a dose of 0.5 mpk were measured at 3, 6, and 24 hours. […] The expression of hEPO in mice intramuscularly administered a nanoparticle composition from Table 1B at a dose of 0.01 mpk were measured at 3, 6, and 24 hours.
(§1) Blood collection and analysis for hEPO. Blood was collected from mice or rats via the tail vein and hEPO concentrations were determined using a hEPO ELISA assay.

luciferase (Luc) mRNA [6] = assay: Luc expression, whole body bioluminescence after intravenous administration to mice; format: in vivo; conditions: Table 3E; intravenous
How it was run: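 Bioluminescence, read as region-of-interest total flux at 3, 6 and 24 h, followed a single 0.5 mg/kg intravenous dose of Luc mRNA-loaded nanoparticles in mice (n=6). Luciferin substrate (200 μL, 15 mg/mL in PBS) was injected intraperitoneally into CD-1 mice 15 minutes ahead of each imaging point.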

[7] = Lipid clearance: lipid level in mouse liver tissue (LC-MS/MS); format: in vivo; conditions: Table 3E, mouse liver
Procedure: Quantification of Lipid by LC-MS/MS: Liver samples were homogenized following addition of 19 eq. (w/v) of water (DF=20). Protein was precipitated and analyzed against calibration standards prepared in matching blank. Chromatographic separation and quantification was accomplished with a LC-MS/MS System. Samples were injected and separated via HPLC A triple-quadrupole MS/MS system operated in positive ion mode was used for signal detection.

hEPO mRNA [8] = assay: hEPO expression after intravenous administration to rats; format: in vivo, rat; conditions: Table 19B; for Lipid/MC3 ([hEPO] ratio) / Lipid/MC3 AUC: relative to MC3; for [hEPO]: species, dose and time not given
Procedure: The expression of hEPO and cytokine induction in rats intravenously administered a nanoparticle composition at a dose of 2.0 mpk was measured at 6 h.
(§2) The expression of hEPO in rats intravenously administered a nanoparticle composition at a dose of 0.2 mpk or 2.0 mpk was measured at 6 hours. Table 16 summarize the ratio of hEPO expression levels using various nanoparticle compositions as compared to the hEPO expression level using MC3 formulation and the lipid levels in the liver measured 48 hours after administration, as described above. Tables 17 and 18 summarize the lipid levels in the liver and spleen measured 48 hours after administration of Compounds 28, 33, 53, and 54. Liver and spleen levels represent the average values calculated for 3 rats in each group. As is shown in Tables 17 and 18, less than 10% of Compounds 28, 33, 53, and 54 remained in the liver after 48 hours, while greater than 60% of MC3 remained.
The expression of hEPO induced by intravenous administration to rats of nanoparticle compositions at various doses was measured at 2, 4, 6, 8, 24, and 48 hour time points. FIGS. 3-6 respectively summarize the hEPO expression measured upon intravenous administration of formulations including Compounds 26, 18, 25, and MC3 to rat at various doses. The lipid levels of Compound 26 in the liver after 48 hours were about 19%.
(§3) 005781 The expression of hEPO and lipid levels in the liver and spleen in rats intravenously administered a nanoparticle composition at a dose of 0.2 mpk was measured at various time points. Compounds 18 and 25 were selected for comparison with MC3. Lipids were formulated according to the standard MC3 formulation described above. Rats were administered intravenously a single 0.2 mpk dose and expression monitored at 0.25, 0.5, 1, 2, 4, 8, 24, and 48 hours after administration.
as §1

[9] = Residual lipid levels in rat liver and spleen (UPLC-MS); format: in vivo; conditions: Table 19B, liver, 24 h
Procedure: At 48 h liver tissue was harvested for lipid quantification. To pre-weighed tissues, Milli-Q water was added (900 μL water per 100 mg tissue). Tissues were homogenized using an Omni probe homogenizer until uniform. 50 μL of samples and matrix calibration standards were aliquoted into a 96-well plate. 50 μL of blank matrix for matrix blanks and control blanks were aliquoted. 400 μL is spiking solution were manually added to all samples except matrix blanks. 400 μL of 50:50 ACN:IPA were manually added to matrix blanks. The plate was covered and the samples vortexed and centrifuged for 5 minutes at >3000 rpm. 200 μL of the samples were transferred into a clean 96-well plate for analysis. Samples were analyzed on a Waters Acquity UPLC using a Higgins Analytical Clipeus C8 column ([…], 30×2.1 mm) and a gradient of either 70-95% or 60-95% (Mobile Phase A: 5 mM ammonium formate in 50:50:1 H2O:MeOH:formic acid; Mobile Phase B: 5 mM ammonium formate in 100:1 MeOH:formic acid) over 1.3 min at 1.2 mL/min (column temperature 55° C.). Detection was based on electrospray ionization (ESI) in positive mode using a Sciex API5500 Mass Spectrometer.
as §2, §3

[10] = Table 1A, lipid:DSPC:cholesterol:PEG-DMG 50:10:38.5:1.5 mol %
[11] = Table 1B, formulated with hEPO mRNA

| Compound | PDI ([1]; Table 1A) | Size (nm) [1, 10] [nm] | EE (%) ([2]; Table 1A) | pKa [3] | App. pKa ([3]; Table 3F) | i.m. Lipid/MC3 0.01 mpk, Luc, 6 h (luciferase (Luc) mRNA [4]) | Lipid/MC3 6 h timepoint (hEPO mRNA [5]) | Lipid/MC3 AUC (hEPO mRNA [5]) | PDI [1, 11] | Size (nm) [1, 11] [nm] | EE (%) [2, 11] [%] | 6 h BLI Lipid/MC3 (luciferase (Luc) mRNA [6]) | % Remaining dose at 6 h ([7]; 6 h) [%] | % Remaining dose at 24 h ([7]; 24 h) [%] | AUC (hEPO) (hEPO mRNA [8]) [pg·h/mL] | Lipid/MC3 ([hEPO] ratio) (hEPO mRNA [8]) | Lipid/MC3 AUC (hEPO mRNA [8]) | [hEPO] (hEPO mRNA [8]) [pg/mL] | % dose remaining, liver, 24 h [9] [%] |
| --- | --- | --- | --- | --- | --- | --- | --- | --- | --- | --- | --- | --- | --- | --- | --- | --- | --- | --- | --- |
| CCCCCCCCCOC(=O)CCCCCCCN(CCCCCCCC(=O)OC(CCCCCCCC)CCCCCCCC)CCCNc1c(N(C)C)c(=O)c1=O [Compound 169, Heptadecan-9-yl 8-((3-((2-(dimethylamino)-3,4-dioxocyclobut-1-en-1-yl)amino)propyl)(8-(nonyloxy)-8-oxooctyl)amino)octanoate] | 0.17 | 87.4 | 99.4 | 6.77. | 7.63 | 3.3 | 4.6 | 4.7 | – | – | – | – | – | – | – | – | – | – | – |
| CCCCCCCCCOC(=O)CCCCCCCN(CCCCCCCC(=O)OC(CCCCCCCC)CCCCCCCC)CCCNc1c(NC)c(=O)c1=O [Compound 182, Heptadecan-9-yl 8-((3-((2-(methylamino)-3,4-dioxocyclobut-1-en-1-yl)amino)propyl)(8-(nonyloxy)-8-oxooctyl)amino)octanoate] | 0.14 | 84.4 | 99.0 | 6.48 | – | – | 1.6 | 1.2 | – | – | – | – | – | – | – | – | – | – | – |
| CCCCCCCCC(CCCCCCCC)OC(=O)CCCCCCCN(CCO)CCCCCCCC(=O)OCC(C)CCCCCCC (stereo not drawn) [Compound 184, Heptadecan-9-yl 8-((2-hydroxyethyl)(8-((2-methylnonyl)oxy)-8-oxooctyl)amino)octanoate] | 0.13 | 77.2 | 94.2 | 6.47 | – | – | – | – | 0.16 | 85.8 | 96.5 | 7.46 | 0.282 | 0 | 1.41e+08 | 7.13 | 7.64 | 1.05e+07 | 0.04 |
| CCCCCCCCC(CCCCCCCC)OC(=O)CCCCCCCN(CCO)CCCCCCCCCC(=O)OCCCCCCC [Compound 189, Heptyl 10-((8-(heptadecan-9-yloxy)-8-oxooctyl)(2-hydroxyethyl)amino)decanoate] | – | – | – | – | – | – | – | – | 0.16 | 95.5 | 93.9 | – | – | – | 4.35e+07 | – | 2.35 | 3.01e+06 | 0.00 |
| CCCCCCCCCOC(=O)CCCCCCCN(CCCCCCCC(=O)OC(CCCCCCCC)CCCCCCCC)CCCNC(=O)C(C)C [Compound 194, Heptadecan-9-yl 8-((3-isobutyramidopropyl)(8-(nonyloxy)-8-oxooctyl)amino)octanoate] | – | – | – | – | – | – | 5.5 | 6.2 | – | – | – | – | – | – | – | – | – | – | – |
| CCCCCCCCCOC(=O)CCCCCCCN(CCO)CCCCCC(=O)OC1CCC(CCCCC)CC1 (stereo not drawn) [Compound 232, Nonyl 8-((2-hydroxyethyl)(6-oxo-6-((4-pentylcyclohexyl)oxy)hexyl)amino)octanoate] | – | – | – | – | – | – | – | – | 0.23 | 150.3 | 76.3 | – | – | – | 73800 | – | <0.01 | 7024.114 | 0.00 |
| CCCCCCCCCOC(=O)CCCCCCCN(CCO)CCCCCCC(C)OC(=O)C(CCCCCCCC)CCCCCCCC (stereo not drawn) [Compound 234, 8-((2-Hydroxyethyl)(8-(nonyloxy)-8-oxooctyl)amino)octan-2-yl 2-octyldecanoate] | – | – | – | – | – | – | – | – | 0.22 | 96.3 | 94.7 | – | – | – | 5.17e+07 | – | – | 3.56e+06 | 0.03 |
| CCCCCCCCC(CCCCCCCC)OC(=O)CCCCCCCN(CCO)CCCCCC(=O)OC(C)CCCCCCCCOC(C)=O (stereo not drawn) [Compound 235, Heptadecan-9-yl 8-((6-((10-acetoxydecan-2-yl)oxy)-6-oxohexyl)(2-hydroxyethyl)amino)octanoate] | – | – | – | – | – | – | – | – | 0.24 | 228 | 40.9 | – | – | – | 1.71e+07 | 0.8601 | 0.93 | 1.27e+06 | 0.06 |
| CCCCCCCCCOC(=O)CCCCCCCNCCCCCCCC(=O)OC(CCCCCCCC)CCCCCCCC [Compound 237] | – | – | – | – | – | – | – | – | 0.15 | 82.5 | 99.3 | – | – | – | 4.09e+07 | – | – | 3.47e+06 | 0.14 |
| CCCCCCCCCOC(=O)CCCCCCCN(CCCCCCCC(=O)OC(CCCCCCCC)CCCCCCCC)CCCC(N)=O [Compound 243, Heptadecan-9-yl 8-((4-amino-4-oxobutyl)(8-(nonyloxy)-8-oxooctyl)amino)octanoate] | – | – | – | – | – | – | – | – | 0.35 | 90.6 | 99.4 | – | – | – | 445000 | 0.02755 | 0.02 | 40600 | 0.05 |
| CCCCCCCCCOC(=O)CCCCCCCN(CCCCCCCC(=O)OC(CCCCCCCC)CCCCCCCC)CCNC(C)=O [Compound 244, Heptadecan-9-yl 8-((2-acetamidoethyl)(8-(nonyloxy)-8-oxooctyl)amino)octanoate] | – | – | – | – | – | – | 0.4 | 0.4 | – | – | – | – | – | – | – | – | – | – | – |
